These results are taken from US20190375708A1 (VenatoRx Pharmaceuticals, Inc., priority 2018, published 2019).

Bounds are passed on as bounds.

A short description of data set [1]: In vitro cytotoxicity assay (MTT cell viability) in HepG2 cells. It is filed as cell-based, human. Conditions: human. An outline of the steps: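 Parental HepG2 cells in EMEM + 10% FBS were exposed to compounds (8 half-log dilutions, 30 μM to 1.0 nM) for 7 days at 37 °C, 5% CO2. MTT was then added for 3-4 h, formazan dissolved in DMSO and absorbance read at 492 nm; CC50 came from 4-parameter fits against vehicle controls.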

Data set [2] deals with HBV replication in HepAD38 cells. The data set is described as follows: Anti-HBV replication assay in HepAD38 cells (QPCR of extracellular HBV DNA). It is filed as cell-based, HBV (genotype D, serotype ayw). Conditions: Hepatitis B virus, 168 h, 7 days incubation, extracellular HBV DNA by QPCR, read-out: Anti-HBV EC50. An outline of the steps: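 Compounds (1 log10 serial dilutions, […]) were left 7 days on tetracycline-free HepAD38 cultures, a HepG2 line with tet-controlled HBV genotype D. EC50 came from 4-parameter regression of percent inhibition versus vehicle, using supernatant HBV DNA copies/mL measured by QPCR.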

The compound `Cc1c(C(=O)Nc2ccc(F)nc2)c(C)n(C)c1C(=O)C(=O)NC(C)(C)CO` [Example 120, N-(6-fluoropyridin-3-yl)-5-(2-((1-hydroxy-2-methylpropan-2-yl)amino)-2-oxoacetyl)-1,2,4-trimtehyl-1H-pyrrole-3-carboxamide] displayed a CC50 at 7 days in data set [1] of more than 30000 nM. Also, in data set [2], the EC50 fell in the range of 500 to 1000 nM.
In turn, `Cc1cc(NC(=O)c2c(C)c(C(=O)C(=O)NC(C)(C)C)n(CCF)c2C)cnc1F` [Example 225, 5-(2-(tert-butylamino)-2-oxoacetyl)-N-(6-fluoro-5-methylpyridin-3-yl)-1-(2-fluoroethyl)-2,4-dimethyl-1H-pyrrole-3-carboxamide] yielded a CC50 at 7 days in data set [1] of more than 30000 nM. Besides, the EC50 in data set [2] lay in the range of 500 to 1000 nM.
The like results for `Cc1cc(NC(=O)c2c(Cl)c(C(=O)C(=O)NC(C)(C)CO)n(C)c2C)ccc1F` [Example 365, 4-chloro-N-(4-fluoro-3-methylphenyl)-5-(2-((1-hydroxy-2-methylpropan-2-yl)amino)-2-oxoacetyl)-1,2-dimethyl-1H-pyrrole-3-carboxamide] were, in that order, more than 30000 nM and less than 50 nM.
In data set [1], `Cc1cc(NC(=O)c2c(C)c(C(=O)C(=O)NOC(C)(C)C)n(C)c2C)ccc1F` [Example 70, 5-(2-(tert-butoxyamino)-2-oxoacetyl)-N-(4-fluoro-3-methylphenyl)-1,2,4-trimethyl-1H-pyrrole-3-carboxamide] returned a CC50 at 7 days of more than 30000 nM. In addition, the EC50 in data set [2] is less than 50 nM.
Regarding `Cc1cc(NC(=O)c2c(C)c(C(=O)C(=O)NC3CCSCC3)n(C)c2C)cnc1F` [Example 191, N-(6-fluoro-5-methylpyridin-3-yl)-1,2,4-trimethyl-5-(2-oxo-2-((tetrahydro-2H-thiopyran-4-yl)amino)acetyl)-1H-pyrrole-3-carboxamide], in data set [1], the CC50 at 7 days is more than 30000 nM. In data set [2], the EC50 was less than 50 nM.
For `Cc1noc([C@H](C)NC(=O)C(=O)c2c(C)c(C(=O)Nc3cnc(F)c(C)c3)c3n2CCCC3)n1` [Example 471, (S)-N-(6-fluoro-5-methylpyridin-3-yl)-2-methyl-3-(2-((1-(3-methyl-1,2,4-oxadiazol-5-yl)ethyl)amino)-2-oxoacetyl)-5,6,7,8-tetrahydroindolizine-1-carboxamide], in that order: more than 30000 nM and 500 to 1000 nM.
For `Cc1cc(NC(=O)c2c(C)c(C(=O)C(=O)NC(C)(C)C(N)=O)n(CCO)c2C)ccc1F` [Example 72, 5-(2-((1-amino-2-methyl-1-oxopropan-2-yl)amino)-2-oxoacetyl)-N-(4-fluoro-3-methylphenyl)-1-(2-hydroxyethyl)-2,4-dimethyl-1H-pyrrole-3-carboxamide], in that order: more than 30000 nM and more than 1000 nM.
The like results for `Cc1noc([C@H](C)NC(=O)C(=O)c2c(C)c(C(=O)Nc3ccc(F)c(C)c3)c(C)n2C)n1` [Example 215, (S)-N-(4-fluoro-3-methylphenyl)-1,2,4-trimethyl-5-(2-((1-(3-methyl-1,2,4-oxadiazol-5-yl)ethyl)amino)-2-oxoacetyl)-1H-pyrrole-3-carboxamide] were, in that order, more than 30000 nM and less than 50 nM.
In data set [1], `Cc1cc(NC(=O)c2cc(C(=O)C(=O)NC(C)(C)C)n3c2CCCC3)ccc1F` [Example 393, 3-(2-(tert-butylamino)-2-oxoacetyl)-N-(4-fluoro-3-methylphenyl)-5,6,7,8-tetrahydroindolizine-1-carboxamide] had a CC50 at 7 days of more than 30000 nM. Further, in data set [2], the concentration giving a half-maximal response (EC50) lay in the range of 50 to 499 nM.
In the case of `O=C(N[C@H]1C[C@H](O)C1)C(=O)c1c(Cl)c(C(=O)Nc2ccc(F)c(F)c2)c2n1CCC2` [Example 551, 6-chloro-N-(3,4-difluorophenyl)-5-(2-(((1r,3r)-3-hydroxycyclobutyl)amino)-2-oxoacetyl)-2,3-dihydro-1H-pyrrolizine-7-carboxamide], in data set [1], the CC50 at 7 days was more than 30000 nM. The 50% effective concentration (EC50) in data set [2] lay within 50 to 499 nM.
For the compound `Cc1cc(NC(=O)c2cc(C(=O)C(=O)N[C@H](C(N)=O)[C@@H](C)O)n3c2CCCC3)ccc1F` [Example 401], in data set [1], the CC50 at 7 days was more than 30000 nM. In addition, in data set [2], the EC50 is more than 1000 nM.
For `Cc1c(C(=O)Nc2cccc(C(F)F)c2)c(C)n(C)c1C(=O)C(=O)N[C@@H]1CC[C@@H](O)C1` [Example 721, N-(3-(difluoromethyl)phenyl)-5-(2-(((1R,3R)-3-hydroxycyclopentyl)amino)-2-oxoacetyl)-1,2,4-trimethyl-1H-pyrrole-3-carboxamide], in that order: more than 30000 nM and less than 50 nM.
For `Cc1cc(NC(=O)C(=O)c2c(C)c(C(=O)Nc3ccc(F)c(C)c3)c(C)n2C)ccc1F` [Example 216, N-(4-fluoro-3-methylphenyl)-5-(2-((4-fluoro-3-methylphenyl)amino)-2-oxoacetyl)-1,2,4-trimethyl-1H-pyrrole-3-carboxamide], in that order: 5000 to 30000 nM and less than 50 nM.
For `Cc1cc(NC(=O)c2c(C)c(C(=O)C(=O)Nc3ccn(CCO)n3)n(C)c2C)ccc1F` [Example 307, N-(4-fluoro-3-methylphenyl)-5-(2-((1-(2-hydroxyethyl)-1H-pyrazol-3-yl)amino)-2-oxoacetyl)-1,2,4-trimethyl-1H-pyrrole-3-carboxamide], in that order: more than 30000 nM and less than 50 nM.
With `Cc1c(C(=O)Nc2ccc(F)c(F)c2)c(Cl)c(C(=O)C(=O)NC2(C)CC(F)(F)C2)n1C` [Example 375, 4-chloro-5-(2-((3,3-difluoro-1-methylcyclobutyl)amino)-2-oxoacetyl)-N-(3,4-difluorophenyl)-1,2-dimethyl-1H-pyrrole-3-carboxamide], the CC50 at 7 days in data set [1] was more than 30000 nM. In data set [2], the EC50 was less than 50 nM.
For `COc1c(C(=O)Nc2ccc(F)c(F)c2)c(C)n(C)c1C(=O)C(=O)NCC(C)(C)O` [Example 382, N-(3,4-difluorophenyl)-5-(2-((2-hydroxy-2-methylpropyl)amino)-2-oxoacetyl)-4-methoxy-1,2-dimethyl-1H-pyrrole-3-carboxamide], in that order: more than 30000 nM and more than 1000 nM.
The like results for `Cc1c(C(=O)Nc2cccc(Cl)c2)c(C)n(C)c1C(=O)C(=O)N[C@]1(C)CC[C@@H](O)CC1` [Example 615, N-(3-chlorophenyl)-5-(2-(((1r,4r)-4-hydroxy-1-methylcyclohexyl)amino)-2-oxoacetyl)-1,2,4-trimethyl-1H-pyrrole-3-carboxamide] were, in that order, more than 30000 nM and less than 50 nM.
The like results for `Cc1cc(NC(=O)c2c(C)c(C(=O)C(=O)NCC(C)(C)O)n3c2CCCC3)cnc1F` [Example 477, N-(6-fluoro-5-methylpyridin-3-yl)-3-(2-((2-hydroxy-2-methylpropyl)amino)-2-oxoacetyl)-2-methyl-5,6,7,8-tetrahydroindolizine-1-carboxamide] were, in that order, more than 30000 nM and more than 1000 nM.
Consider `Cc1cc(NC(=O)c2c(Cl)c(C(=O)C(=O)NC3(CO)CC(F)(F)C3)n(C)c2C)ccc1F` [Example 366, 4-chloro-5-(2-((3,3-difluoro-1-(hydroxymethyl)cyclobutyl)amino)-2-oxoacetyl)-N-(4-fluoro-3-methylphenyl)-1,2-dimethyl-1H-pyrrole-3-carboxamide], for which the CC50 at 7 days in data set [1] was more than 30000 nM. Further, the EC50 in data set [2] is less than 50 nM.
The like results for `Cc1cc(NC(=O)c2c(C)c(C(=O)C(=O)NC34CC5CC(CC3C5)C4)n(C)c2C)ccc1F` [Example 18, N-(4-fluoro-3-methylphenyl)-5-(2-(((2R,3as,5S,6as)-hexahydro-2,5-methanopentalen-3a(1H)-yl)amino)-2-oxoacetyl)-1,2,4-trimethyl-1H-pyrrole-3-carboxamide] were, in that order, more than 30000 nM and less than 50 nM.
For `Cc1cc(NC(=O)c2c(C)c(C(=O)C(=O)NC(C)(C)CO)n(CCO)c2C)ccc1F` [Example 50, N-(4-fluoro-3-methylphenyl)-5-(2-((1-hydroxy-2-methylpropan-2-yl)amino)-2-oxoacetyl)-1-(2-hydroxyethyl)-2,4-dimethyl-1H-pyrrole-3-carboxamide], in that order: more than 30000 nM and more than 1000 nM.
Turning to `Cc1cc(NC(=O)c2c(C)c(C(=O)C(=O)N[C@@H]3CCC[C@@H](O)C3)n(C)c2C)ccc1F` [Example 287, N-(4-fluoro-3-methylphenyl)-5-(2-(((1R,3R)-3-hydroxycyclohexyl)amino)-2-oxoacetyl)-1,2,4-trimethyl-1H-pyrrole-3-carboxamide], the CC50 at 7 days in data set [1] is more than 30000 nM. The EC50 in data set [2] is less than 50 nM.
The like results for `Cc1cc(NC(=O)c2c(Cl)c(C(=O)C(=O)N[C@@H](C)C(F)(F)F)n3c2CCCC3)cnc1F` [Example 731, (S)-2-chloro-N-(6-fluoro-5-methylpyridin-3-yl)-3-(2-oxo-2-((1,1,1-trifluoropropan-2-yl)amino)acetyl)-5,6,7,8-tetrahydroindolizine-1-carboxamide] were, in that order, 5000 to 30000 nM and less than 50 nM.
Compound `Cc1cc(NC(=O)c2c(C)c(C(=O)C(=O)N[C@H]3CC[C@H](C(C)(C)O)CC3)n(C)c2C)ccc1F` [Example 677, N-(4-fluoro-3-methylphenyl)-5-(2-(((1r,4r)-4-(2-hydroxypropan-2-yl)cyclohexyl)amino)-2-oxoacetyl)-1,2,4-trimethyl-1H-pyrrole-3-carboxamide] returned a CC50 at 7 days in data set [1] of more than 30000 nM. The EC50 in data set [2] is less than 50 nM.
For `Nc1ncc(CNC(=O)C(=O)c2c(Cl)c(C(=O)Nc3ccc(F)c(Cl)c3)c3n2CCC3)s1` [Example 562, 5-(2-(((2-aminothiazol-5-yl)methyl)amino)-2-oxoacetyl)-6-chloro-N-(3-chloro-4-fluorophenyl)-2,3-dihydro-1H-pyrrolizine-7-carboxamide], in that order: 5000 to 30000 nM and less than 50 nM.
